The values below come from patent publication US20230150974A1 (Foghorn Therapeutics Inc., priority 2020, published 2023).

For one experiment, the target named is T1, HiBit-BRG1 (Homo sapiens, UniProt P51532).
T1 construct: expressed in transfected cells
As to the kind of experiment: HiBit-BRG1 cell-based degradation assay (Nano-Glo HiBiT Lytic Detection). To be noted: HeLa cells expressing HiBit-BRG1 and LgBit, 24 h; for DC50: read-out: BRG1 HiBit Degradation IC50; for Dmax: read-out: BRG1 HiBit Degradation Maximum (%). The gist of the method: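 Luminescence from Nano-Glo HiBiT lytic detection, read after 24 h compound exposure, scored degradation in a stable HeLa HiBiT-BRG1/LgBit line seeded at 5000 cells/well. DMSO wells defined 0% and 2 μM known BRM/BRG1 degrader wells defined full degradation.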
On the technique in general: HiBiT is a short tag that completes a luciferase, so light tracks the accessible tagged protein.

In another experiment the target is T2, HiBiT-BRM (Homo sapiens, UniProt P51531).
T2 construct: expressed in transfected cells
As to the kind of experiment: HiBiT-BRM cell-based degradation assay (Nano-Glo HiBiT Lytic Detection). To be noted: HeLa cells expressing HiBiT-BRM, 24 h; for DC50: read-out: BRM HiBit Degradation IC50. The gist of the method:
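HeLa cells stably expressing HiBiT-tagged BRM were treated for 24 h, then lysed with LgBiT-containing Nano-Glo reagent and luminescence read. % degradation scaled between DMSO (high control) and 2 μM reference BRM/BRG1 degrader (low control).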

T1 sequence (P51532 whole entry): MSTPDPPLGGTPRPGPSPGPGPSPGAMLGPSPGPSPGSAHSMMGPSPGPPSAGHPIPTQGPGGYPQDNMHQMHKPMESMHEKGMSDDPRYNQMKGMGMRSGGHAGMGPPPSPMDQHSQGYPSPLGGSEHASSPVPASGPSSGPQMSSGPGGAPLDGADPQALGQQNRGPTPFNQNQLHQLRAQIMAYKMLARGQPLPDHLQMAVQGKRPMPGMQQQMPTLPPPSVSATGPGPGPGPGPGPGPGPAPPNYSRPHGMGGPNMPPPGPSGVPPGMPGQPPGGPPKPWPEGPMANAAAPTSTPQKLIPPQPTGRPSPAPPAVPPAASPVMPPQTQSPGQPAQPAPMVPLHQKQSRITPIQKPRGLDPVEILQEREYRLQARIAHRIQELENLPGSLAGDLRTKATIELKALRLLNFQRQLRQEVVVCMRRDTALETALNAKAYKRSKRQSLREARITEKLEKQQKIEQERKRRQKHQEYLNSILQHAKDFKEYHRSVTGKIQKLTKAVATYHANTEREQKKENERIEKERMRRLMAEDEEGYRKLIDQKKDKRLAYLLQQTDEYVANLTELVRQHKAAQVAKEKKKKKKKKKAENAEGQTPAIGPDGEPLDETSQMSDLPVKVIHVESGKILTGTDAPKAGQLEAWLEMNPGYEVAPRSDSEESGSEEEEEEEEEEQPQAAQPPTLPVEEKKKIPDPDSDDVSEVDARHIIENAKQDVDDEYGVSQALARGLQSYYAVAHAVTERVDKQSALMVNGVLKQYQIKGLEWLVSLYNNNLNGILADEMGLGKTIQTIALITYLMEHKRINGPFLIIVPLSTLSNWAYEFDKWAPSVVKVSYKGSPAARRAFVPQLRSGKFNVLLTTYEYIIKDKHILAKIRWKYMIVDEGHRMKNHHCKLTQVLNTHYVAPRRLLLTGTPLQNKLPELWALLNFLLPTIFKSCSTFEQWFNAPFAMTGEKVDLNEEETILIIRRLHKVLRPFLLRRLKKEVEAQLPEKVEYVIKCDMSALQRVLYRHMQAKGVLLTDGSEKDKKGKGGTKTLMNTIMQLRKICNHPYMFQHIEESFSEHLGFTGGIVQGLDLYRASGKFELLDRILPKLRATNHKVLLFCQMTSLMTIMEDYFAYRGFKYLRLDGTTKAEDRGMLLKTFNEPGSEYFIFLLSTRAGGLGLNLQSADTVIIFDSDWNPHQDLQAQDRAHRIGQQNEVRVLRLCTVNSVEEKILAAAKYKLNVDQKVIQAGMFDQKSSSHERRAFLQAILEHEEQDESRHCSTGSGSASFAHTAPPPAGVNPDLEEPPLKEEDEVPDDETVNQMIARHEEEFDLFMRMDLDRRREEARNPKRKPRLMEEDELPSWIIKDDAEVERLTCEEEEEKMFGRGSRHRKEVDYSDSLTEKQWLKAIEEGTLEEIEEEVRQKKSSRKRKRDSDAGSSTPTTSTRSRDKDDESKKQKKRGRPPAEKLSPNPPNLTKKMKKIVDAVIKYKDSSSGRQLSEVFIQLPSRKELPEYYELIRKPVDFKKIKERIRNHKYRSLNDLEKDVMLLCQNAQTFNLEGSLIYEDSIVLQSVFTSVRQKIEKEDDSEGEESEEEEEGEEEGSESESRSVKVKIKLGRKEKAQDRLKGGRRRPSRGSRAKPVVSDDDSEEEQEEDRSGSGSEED
T2 sequence (P51531 whole entry): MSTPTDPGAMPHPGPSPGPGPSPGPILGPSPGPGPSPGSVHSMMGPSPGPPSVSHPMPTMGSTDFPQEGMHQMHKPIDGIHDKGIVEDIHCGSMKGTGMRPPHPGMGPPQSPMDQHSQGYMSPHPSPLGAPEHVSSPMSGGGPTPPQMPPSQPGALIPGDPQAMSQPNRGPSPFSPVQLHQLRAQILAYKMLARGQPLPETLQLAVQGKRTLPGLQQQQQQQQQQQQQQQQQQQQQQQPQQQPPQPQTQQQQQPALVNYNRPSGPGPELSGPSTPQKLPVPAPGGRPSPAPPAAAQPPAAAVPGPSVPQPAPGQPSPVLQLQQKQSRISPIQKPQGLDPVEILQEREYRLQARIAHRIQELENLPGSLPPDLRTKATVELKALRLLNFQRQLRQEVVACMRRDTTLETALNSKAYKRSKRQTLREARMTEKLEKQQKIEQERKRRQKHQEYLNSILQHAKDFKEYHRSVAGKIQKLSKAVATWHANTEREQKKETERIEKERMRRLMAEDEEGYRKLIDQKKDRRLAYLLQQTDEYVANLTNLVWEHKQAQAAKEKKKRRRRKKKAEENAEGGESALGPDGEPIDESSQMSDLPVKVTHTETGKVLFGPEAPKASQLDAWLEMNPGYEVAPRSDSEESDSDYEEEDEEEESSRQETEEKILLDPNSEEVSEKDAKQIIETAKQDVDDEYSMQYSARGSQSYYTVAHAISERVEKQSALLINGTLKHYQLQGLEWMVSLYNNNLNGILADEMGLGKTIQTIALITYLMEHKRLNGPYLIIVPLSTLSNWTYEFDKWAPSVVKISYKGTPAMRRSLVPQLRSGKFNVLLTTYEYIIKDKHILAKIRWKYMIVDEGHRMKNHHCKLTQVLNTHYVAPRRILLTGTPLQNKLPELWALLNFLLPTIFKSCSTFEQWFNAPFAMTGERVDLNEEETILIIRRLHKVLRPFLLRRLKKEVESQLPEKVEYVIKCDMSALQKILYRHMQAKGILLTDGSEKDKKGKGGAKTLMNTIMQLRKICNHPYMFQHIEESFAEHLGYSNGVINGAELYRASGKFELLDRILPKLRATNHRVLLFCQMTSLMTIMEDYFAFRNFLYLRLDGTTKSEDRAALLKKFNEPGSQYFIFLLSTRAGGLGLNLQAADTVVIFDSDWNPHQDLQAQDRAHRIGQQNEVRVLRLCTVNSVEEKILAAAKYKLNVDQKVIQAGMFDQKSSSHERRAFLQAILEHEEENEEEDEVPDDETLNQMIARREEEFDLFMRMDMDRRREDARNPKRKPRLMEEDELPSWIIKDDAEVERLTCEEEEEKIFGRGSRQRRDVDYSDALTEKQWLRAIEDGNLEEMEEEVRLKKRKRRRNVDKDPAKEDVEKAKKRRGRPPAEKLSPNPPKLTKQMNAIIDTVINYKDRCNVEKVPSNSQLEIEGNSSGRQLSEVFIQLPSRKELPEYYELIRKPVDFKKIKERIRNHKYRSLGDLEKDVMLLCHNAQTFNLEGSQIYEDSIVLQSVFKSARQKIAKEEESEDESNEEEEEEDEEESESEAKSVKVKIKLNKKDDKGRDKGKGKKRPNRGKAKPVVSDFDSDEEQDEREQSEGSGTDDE

Turning to `Nc1nnc(-c2ccccc2O)cc1OCCc1ccc(CNC(=O)CCCCNc2cccc3c2C(=O)N(C2CCC(=O)NC2=O)C3=O)cc1` (centres unmarked) [Compound 4, N-[[4-(2-[[3-amino-6-(2-hydroxyphenyl)pyridazin-4-yl]oxy]ethyl)phenyl]methyl]-5-[[2-(2,6-dioxopiperidin-3-yl)-1,3-dioxoisoindol-4-yl]amino]pentanamide], the DC50 at HiBit-BRG1 was greater than 1 µM. Also, at HiBiT-BRM, the “BRM HiBit Degradation Maximum (%)” value is “B (“B” indicates maximum degradation ≥50%)” and the DC50 was greater than 0.1 µM.
Turning to `Cc1ncsc1-c1ccc(CNC(=O)[C@@H]2C[C@@H](O)CN2C(=O)[C@@H](NC(=O)COCCNC(=O)c2ccc(CCOc3cc(-c4ccccc4O)nnc3N)cc2)C(C)(C)C)cc1` [Compound 163, (2S,4R)-1-((S)-2-(2-(2-(4-(2-((3-amino-6-(2-hydroxyphenyl)pyridazin-4-yl)oxy)ethyl)benzamido)ethoxy)acetamido)-3,3-dimethylbutanoyl)-4-hydroxy-N-(4-(4-methylthiazol-5-yl)benzyl)pyrrolidine-2-carboxamide], on HiBit-BRG1, the DC50 was greater than 1 µM and the Dmax was less than 50%. At HiBiT-BRM, the “BRM HiBit Degradation Maximum (%)” value was “B (“B” indicates maximum degradation ≥50%)” and the DC50 was greater than 1 µM.
For the molecule `Nc1nnc(-c2ccccc2O)cc1N1CCN(CC(=O)NCCCCS(=O)(=O)CCCNc2cccc3c2C(=O)N(C2CCC(=O)NC2=O)C3=O)CC1` (centres unmarked) [Compound 80, 2-[4-[3-amino-6-(2-hydroxyphenyl)pyridazin-4-yl]piperazin-1-yl]-N-[4-(3-[[2-(2,6-dioxopiperidin-3-yl)-1,3-dioxoisoindol-4-yl]amino]propanesulfonyl)butyl]acetamide], on HiBit-BRG1, the DC50 was greater than 1 µM and the Dmax is less than 50%. Also, at HiBiT-BRM, the “BRM HiBit Degradation Maximum (%)” value is on record as “C (“C” indicates maximum degradation <50%)” and the DC50 was greater than 1 µM.
For `Nc1nnc(-c2ccccc2O)cc1OCCc1ccc(CNC(=O)CCCCCCCCCCNc2ccc3c(c2)C(=O)N(C2CCC(=O)NC2=O)C3=O)cc1` (centres unmarked) [Compound 66], on HiBit-BRG1, the DC50 was greater than 1 µM and the Dmax is less than 50%. Further, at HiBiT-BRM, the “BRM HiBit Degradation Maximum (%)” value is given as “C (“C” indicates maximum degradation <50%)” and the DC50 is greater than 1 µM.
Consider `Cc1ncsc1-c1ccc(CNC(=O)[C@@H]2C[C@@H](O)CN2C(=O)[C@@H](NC(=O)COCCOCCOCCOCCOCCNC(=O)c2ccc(CCOc3cc(-c4ccccc4O)nnc3N)cc2)C(C)(C)C)cc1` [Compound 167, (2S,4R)-1-((S)-1-(4-(2-((3-amino-6-(2-hydroxyphenyl)pyridazin-4-yl)oxy)ethyl)phenyl)-21-(tert-butyl)-1,19-dioxo-5,8,11,14,17-pentaoxa-2,20-diazadocosan-22-oyl)-4-hydroxy-N-(4-(4-methylthiazol-5-yl)benzyl)pyrrolidine-2-carboxamide], for which, on HiBit-BRG1, the DC50 was greater than 1 µM and the Dmax is less than 50%. Besides, at HiBiT-BRM, the “BRM HiBit Degradation Maximum (%)” value is recorded as “B (“B” indicates maximum degradation ≥50%)” and the DC50 is greater than 1 µM.
As for `Cc1ncsc1-c1ccc(CNC(=O)[C@@H]2C[C@@H](O)CN2C(=O)[C@@H](NC(=O)CCCCN2CCN(CCOc3cc(N4[C@@H]5CC[C@H]4CN(c4cc(-c6ccccc6O)nnc4N)C5)ccn3)CC2)C(C)(C)C)cc1` [Compound 234, (2S,4R)-1-((2S)-2-(5-(4-(2-((4-(3-(3-amino-6-(2-hydroxyphenyl)pyridazin-4-yl)-3,8-diazabicyclo[3.2.1]octan-8-yl)pyridin-2-yl)oxy)ethyl)piperazin-1-yl)pentanamido)-3,3-dimethylbutanoyl)-4-hydroxy-N-(4-(4-methylthiazol-5-yl)benzyl)pyrrolidine-2-carboxamide], on HiBit-BRG1, the DC50 was greater than 1 µM and the Dmax is less than 50%. Further, on HiBiT-BRM, the “BRM HiBit Degradation Maximum (%)” value was “A (“A” indicates maximum degradation ≥75%)” and the DC50 is greater than 0.1 µM.
